Values joined by “and” are separate entries in the source; they are usually repeats but may differ in a detail not shown here. Identical values can stand only once. Like-named read-outs stand apart in the source and are kept apart here.
How the values were obtained:
[1] = tested on: HFGR-I P. falciparum (elevated proline homeostasis and PfcProRS^L482H); assay: P. falciparum ABS growth assay, SYBR Green, 72 h, HFGR-I parasites; type: cell-based, Plasmodium falciparum; details: HFGR-I
Summary of the method: (§1)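 Dd2-derived erythrocytic-stage parasites at 1% parasitemia and 1% hematocrit in RPMI + 0.5% Albumax were exposed to compounds in triplicate dose-response. Controls were 10 μM dihydroartemisinin (kill) and no-compound wells (growth). Growth was read by SYBR Green 1 fluorescence after 72 h and used to derive EC50.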

[2] = tested on: halofuginone-induced P. falciparum (elevated proline homeostasis); assay: P. falciparum ABS growth assay, SYBR Green, 72 h, halofuginone-induced parasites; type: cell-based, Plasmodium falciparum; details: for parasite growth, dose-response point: Halofuginone-Induced (HFG-Induced)
Summary of the method: as §1

[3] = biological target: T1, PfcProRS (Plasmodium falciparum, UniProt Q8I5R7); type: binding; details: for Normalized response, dose-response replicates (SI Fig 14): replicates 1-3, listed as MAT345 (30)
T1 construct: made in house; host or cells: E. coli SoluBL-21
T1 sequence (Q8I5R7 249-746): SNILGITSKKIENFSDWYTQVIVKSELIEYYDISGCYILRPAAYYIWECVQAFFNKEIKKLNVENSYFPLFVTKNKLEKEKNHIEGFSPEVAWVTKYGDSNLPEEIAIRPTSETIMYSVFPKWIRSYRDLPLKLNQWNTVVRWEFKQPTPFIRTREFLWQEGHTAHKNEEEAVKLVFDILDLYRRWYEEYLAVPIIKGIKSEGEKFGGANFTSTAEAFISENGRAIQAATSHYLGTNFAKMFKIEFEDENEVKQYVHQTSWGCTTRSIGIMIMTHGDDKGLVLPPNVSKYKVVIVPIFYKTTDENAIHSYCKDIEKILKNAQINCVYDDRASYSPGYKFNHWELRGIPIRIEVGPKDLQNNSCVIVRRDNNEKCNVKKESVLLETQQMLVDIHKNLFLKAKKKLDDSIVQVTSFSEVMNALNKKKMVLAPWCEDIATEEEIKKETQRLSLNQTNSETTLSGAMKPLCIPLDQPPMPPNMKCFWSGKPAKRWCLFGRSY

[4] = biological target: HsProRS (Homo sapiens, UniProt P07814); assay: TR-FRET ligand displacement assay with tracer MAT379 (CoraFluor-1-Halo and anti-His6 antibody formats); type: binding; set-up: made in house; host or cells: E. coli SoluBL-21; details: for normalized TR-FRET signal (dose-response replicates): SI Fig 17a
Chain of HsProRS (P07814 996-1512): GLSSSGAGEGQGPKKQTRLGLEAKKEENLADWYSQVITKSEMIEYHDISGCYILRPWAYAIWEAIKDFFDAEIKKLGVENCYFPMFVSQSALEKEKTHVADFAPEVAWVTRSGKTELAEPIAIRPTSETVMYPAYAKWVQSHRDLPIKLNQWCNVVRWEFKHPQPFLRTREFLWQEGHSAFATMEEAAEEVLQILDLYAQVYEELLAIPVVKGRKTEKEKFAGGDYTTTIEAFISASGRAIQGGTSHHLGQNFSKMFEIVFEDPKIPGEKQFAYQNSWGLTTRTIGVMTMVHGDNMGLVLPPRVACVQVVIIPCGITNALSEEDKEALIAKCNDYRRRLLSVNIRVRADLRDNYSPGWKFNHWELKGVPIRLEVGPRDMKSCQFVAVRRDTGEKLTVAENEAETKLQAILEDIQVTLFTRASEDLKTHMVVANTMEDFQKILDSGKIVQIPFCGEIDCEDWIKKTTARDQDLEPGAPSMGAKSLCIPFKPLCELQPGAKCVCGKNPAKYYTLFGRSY

[5] = tested on: P. falciparum Dd2-2D4; assay: P. falciparum asexual blood stage (ABS) growth assay, SYBR Green, 72 h, wild-type parasites; type: cell-based, Plasmodium falciparum; details: Plasmodium falciparum, DD2; SI Fig 16b; values on -log scale; read-out: ABS - Dd2-2D4 (converted)
[6] = Log[inhibitor] (M) -5.000, series r16-r27

O=C(NC1Cc2ccccc2C1)c1nccnc1NC(=O)N1CCC(CNC(=O)[C@@H]2CCCN2)CC1 [MAT345]
parasite growth, dose-response point [1, 6]: 34 and 31 and 27
parasite growth, dose-response point ([1]; Log[inhibitor] (M) -5.408): 80 and 82 and 78
parasite growth, dose-response point ([1]; Log[inhibitor] (M) -5.816): 93 and 92 and 94
parasite growth, dose-response point ([1]; Log[inhibitor] (M) -6.222): 97 and 95
parasite growth, dose-response point ([1]; Log[inhibitor] (M) -6.638): 101 and 98 and 100
parasite growth, dose-response point ([1]; Log[inhibitor] (M) -7.046): 98 and 100
parasite growth, dose-response point ([1]; Log[inhibitor] (M) -7.450): 89 and 95 and 94
parasite growth, dose-response point ([1]; Log[inhibitor] (M) -7.854): 93 and 91 and 94
parasite growth, dose-response point ([1]; Log[inhibitor] (M) -8.260): 90 and 93 and 96
parasite growth, dose-response point ([1]; Log[inhibitor] (M) -8.699): 97 and 94 and 92
parasite growth, dose-response point ([1]; Log[inhibitor] (M) -9.000): 97 and 96 and 95
parasite growth, dose-response point ([1]; Log[inhibitor] (M) -9.488): 95 and 102 and 96
parasite growth, dose-response point [2, 6]: 31 and 33
parasite growth, dose-response point ([2]; Log[inhibitor] (M) -5.408): 83 and 82 and 78
parasite growth, dose-response point ([2]; Log[inhibitor] (M) -5.816): 97 and 93 and 100
parasite growth, dose-response point ([2]; Log[inhibitor] (M) -6.222): 102 and 100
parasite growth, dose-response point ([2]; Log[inhibitor] (M) -6.638): 103 and 100 and 98
parasite growth, dose-response point ([2]; Log[inhibitor] (M) -7.046): 102 and 103
parasite growth, dose-response point ([2]; Log[inhibitor] (M) -7.450): 91 and 97
parasite growth, dose-response point ([2]; Log[inhibitor] (M) -7.854): 96 and 99
parasite growth, dose-response point ([2]; Log[inhibitor] (M) -8.260): 97 and 101
parasite growth, dose-response point ([2]; Log[inhibitor] (M) -8.699): 95 and 97 and 96
parasite growth, dose-response point ([2]; Log[inhibitor] (M) -9.000): 98 and 96
parasite growth, dose-response point ([2]; Log[inhibitor] (M) -9.488): 97 and 99
fold decreased activity in halofuginone-induced and HFGR-I parasites ([2]; vs wild-type Dd2-2D4): 20-to-40 fold
Normalized response, dose-response replicates (SI Fig 14) ([3]; Log[inhibitor] (M) -5.041): 4.37E-03 and 8.51E-02 and 8.45E-02
Normalized response, dose-response replicates (SI Fig 14) ([3]; Log[inhibitor] (M) -5.342): 1.11E-01 and 8.97E-02 and 2.09E-01
Normalized response, dose-response replicates (SI Fig 14) ([3]; Log[inhibitor] (M) -5.642): 2.13E-01 and 1.76E-01 and 2.03E-01
Normalized response, dose-response replicates (SI Fig 14) ([3]; Log[inhibitor] (M) -5.943): 2.11E-01 and 3.53E-01 and 2.89E-01
Normalized response, dose-response replicates (SI Fig 14) ([3]; Log[inhibitor] (M) -6.244): 5.69E-01 and 4.73E-01 and 4.91E-01
Normalized response, dose-response replicates (SI Fig 14) ([3]; Log[inhibitor] (M) -6.555): 6.49E-01 and 6.64E-01 and 6.15E-01
Normalized response, dose-response replicates (SI Fig 14) ([3]; Log[inhibitor] (M) -6.837): 7.67E-01 and 7.12E-01 and 8.75E-01
Normalized response, dose-response replicates (SI Fig 14) ([3]; Log[inhibitor] (M) -7.149): 8.93E-01 and 9.71E-01 and 9.69E-01
Normalized response, dose-response replicates (SI Fig 14) ([3]; Log[inhibitor] (M) -7.447): 1.04E+00 and 1.05E+00 and 9.75E-01
Normalized response, dose-response replicates (SI Fig 14) ([3]; Log[inhibitor] (M) -7.755): 9.28E-01 and 9.14E-01 and 8.72E-01
Normalized response, dose-response replicates (SI Fig 14) ([3]; Log[inhibitor] (M) -8.041): 1.06E+00 and 9.79E-01 and 1.02E+00
Normalized response, dose-response replicates (SI Fig 14) ([3]; Log[inhibitor] (M) -8.372): 9.49E-01 and 9.57E-01 and 1.06E+00
Normalized response, dose-response replicates (SI Fig 14) ([3]; Log[inhibitor] (M) -8.615): 1.07E+00 and 9.05E-01 and 1.02E+00
Normalized response, dose-response replicates (SI Fig 14) ([3]; Log[inhibitor] (M) -8.916): 1.03E+00 and 9.82E-01 and 1.08E+00
Normalized response, dose-response replicates (SI Fig 14) ([3]; Log[inhibitor] (M) -9.217): 9.85E-01 and 1.06E+00 and 9.97E-01
PfcProRS -- best Kd ([3]; SI Fig 16a, values on -log scale): 7.445
Kd ([4]; HsProRS (KD [nM]) + proline, 100 μM proline, 250 nM MAT379): 282 nM
Kd ([4]; HsProRS - best Kd, SI Fig 16a, values on -log scale): 140 nM
normalised signal, dose-response point (Fig 4d) ([4]; Log[inhibitor] (M) -5.642): 3.24E-02 and 2.70E-02 and 2.05E-02
normalised signal, dose-response point (Fig 4d) ([4]; Log[inhibitor] (M) -6.244): 1.89E-01 and 2.26E-01 and 2.85E-01
normalised signal, dose-response point (Fig 4d) ([4]; Log[inhibitor] (M) -6.555): 3.68E-01 and 3.01E-01 and 3.10E-01
normalised signal, dose-response point (Fig 4d) ([4]; Log[inhibitor] (M) -6.837): 6.02E-01 and 6.04E-01 and 4.91E-01
normalised signal, dose-response point (Fig 4d) ([4]; Log[inhibitor] (M) -7.149): 6.76E-01 and 6.99E-01 and 6.39E-01
normalised signal, dose-response point (Fig 4d) ([4]; Log[inhibitor] (M) -7.447): 8.48E-01 and 8.28E-01 and 9.00E-01
normalised signal, dose-response point (Fig 4d) ([4]; Log[inhibitor] (M) -7.755): 9.14E-01 and 8.69E-01 and 1.05E+00
normalised signal, dose-response point (Fig 4d) ([4]; Log[inhibitor] (M) -8.041): 9.90E-01 and 1.01E+00 and 9.87E-01
normalised signal, dose-response point (Fig 4d) ([4]; Log[inhibitor] (M) -8.372): 1.02E+00 and 1.03E+00 and 9.36E-01
normalised signal, dose-response point (Fig 4d) ([4]; Log[inhibitor] (M) -8.615): 9.70E-01 and 1.01E+00 and 1.11E+00
normalised signal, dose-response point (Fig 4d) ([4]; Log[inhibitor] (M) -8.916): 9.07E-01 and 1.05E+00 and 9.01E-01
normalised signal, dose-response point (Fig 4d) ([4]; Log[inhibitor] (M) -9.217): 9.78E-01 and 9.88E-01 and 9.92E-01
normalized TR-FRET signal (dose-response replicates) ([4]; Log[inhibitor] (M) -5.041): 4.56E-02 and 1.07E-02 and 1.68E-02
normalized TR-FRET signal (dose-response replicates) ([4]; Log[inhibitor] (M) -5.342): 5.17E-02 and 5.07E-02 and 8.15E-02
normalized TR-FRET signal (dose-response replicates) ([4]; Log[inhibitor] (M) -5.642): 9.59E-02 and 6.70E-02 and 9.33E-02
normalized TR-FRET signal (dose-response replicates) ([4]; Log[inhibitor] (M) -5.943): 1.49E-01 and 1.16E-01 and 1.17E-01
normalized TR-FRET signal (dose-response replicates) ([4]; Log[inhibitor] (M) -6.244): 2.09E-01 and 2.42E-01 and 2.50E-01
normalized TR-FRET signal (dose-response replicates) ([4]; Log[inhibitor] (M) -6.555): 3.66E-01 and 3.52E-01 and 3.76E-01
normalized TR-FRET signal (dose-response replicates) ([4]; Log[inhibitor] (M) -6.837): 5.21E-01 and 5.37E-01 and 4.85E-01
normalized TR-FRET signal (dose-response replicates) ([4]; Log[inhibitor] (M) -7.149): 7.07E-01 and 6.82E-01 and 6.73E-01
normalized TR-FRET signal (dose-response replicates) ([4]; Log[inhibitor] (M) -7.447): 7.81E-01 and 8.42E-01 and 8.20E-01
normalized TR-FRET signal (dose-response replicates) ([4]; Log[inhibitor] (M) -7.755): 9.07E-01 and 9.27E-01 and 8.91E-01
normalized TR-FRET signal (dose-response replicates) ([4]; Log[inhibitor] (M) -8.041): 9.57E-01 and 9.29E-01 and 9.81E-01
normalized TR-FRET signal (dose-response replicates) ([4]; Log[inhibitor] (M) -8.372): 9.20E-01 and 9.69E-01 and 9.64E-01
normalized TR-FRET signal (dose-response replicates) ([4]; Log[inhibitor] (M) -8.615): 9.77E-01 and 1.00E+00 and 1.02E+00
normalized TR-FRET signal (dose-response replicates) ([4]; Log[inhibitor] (M) -8.916): 9.89E-01 and 9.48E-01 and 9.78E-01
normalized TR-FRET signal (dose-response replicates) ([4]; Log[inhibitor] (M) -9.217): 1.04E+00 (2×) and 1.05E+00
EC50 [5]: 249 nM

Source: publication PMC9403976, “Elucidating the path to Plasmodium prolyl-tRNA synthetase inhibitors that overcome halofuginone resistance” (Nature Communications, 2022)
